Data published in patent US5747235A, “Silver halide light sensitive emulsion layer having enhanced photographic sensitivity” (Eastman Kodak Company, priority 1996, dated 1998).

Experiments:
[1] = oxidation potential E2 of radical X by laser flash photolysis; type: physicochemical; details: Table C; by parent XY compound; < = more negative than
Text: In this technique, the compound X-Y is oxidized by an electron transfer reaction initiated by a short laser pulse. The oxidized form of X-Y then undergoes the bond cleavage reaction to give the radical X^.cndot.. X^.cndot. is then allowed to interact with various electron acceptor compounds of known reduction potential. […] The experimental details are set forth more fully below. The oxidation potentials (E2) for radicals X^.cndot. for typical compounds useful in accordance with our invention are given in Table C. Where only limits on potentials could be determined, the following notation is used: <-0.90 V should be read as "more negative than -0.90 V" and >-0.40 V should be read as "less negative than -0.40 V".
(a) Oxidation Potential of Radical X.cndot.
The laser flash photolysis measurements were performed using a nanosecond pulsed excimer (Questek model 2620, 308 nm, ca. 20 ns, ca. 100 mJ) pumped dye laser (Lambda Physik model FL 3002). The laser dye was DPS (commercially available from Exciton Co.) in p-dioxane (410 nm, ca. 20 ns, ca. 10 mJ). The analyzing light source was a pulsed 150W xenon arc lamp (Osram XBO 150/W). The arc lamp power supply was a PRA model 302 and the pulser was a PRA model M-306. The pulser increased the light output by ca. 100 fold, for a time period of ca. 2-3 ms. The analyzing light was focussed through a small aperture (ca. 1.5 mm) in a cell holder designed to hold 1 cm^2 cuvettes. The laser and analyzing beams irradiated the cell from opposite directions and crossed at a narrow angle (ca. 15°). After leaving the cell, the analyzing light was collimated and focussed onto the slit (1 mm, 4 nm bandpass) of an ISA H-20 monochromator. The light was detected using 5 dynodes of a Hamamatsu model R446 photomultiplier. The output of the photomultiplier tube was terminated into 50 ohm, and captured using a Tektronix DSA-602 digital oscilloscope. The entire experiment is controlled from a personal computer.
The experiments were performed either in acetonitrile, or a mixture of 80% acetonitrile and 20% water. The first singlet excited state of a cyanoanthracene (A), which acted as the electron acceptor, was produced using the nanosecond laser pulse at 410 nm. […] Secondary electron transfer then occurred between B^.cndot.+ and the lower oxidation potential electron donor X-Y, to generate X-Y^.cndot.+ in high yield. For the investigations of the oxidation potentials of the radicals X^.cndot., typically the cyanoanthrancene concentration was ca. 2×10^-5 M to 10^-4 M the biphenyl concentration was ca. 0.1M. The concentration of the X-Y donor was ca. 10^-3 M. The rates of the electron transfer reactions are determined by the concentrations of the substrates. The concentrations used ensured that the A^.cndot.- and the X-Y^.cndot.+ were generated within 100 ns of the laser pulse. The radical ions could be observed directly by means of their visible absorption spectra. The kinetics of the photogenerated radical ions were monitored by observation of the changes in optical density at the appropriate wavelengths.
The reduction potential (Ered) of 9,10-dicyanoanthracene (DCA) is -0.91 V. In a typical experiment, DCA is excited and the initial photo-induced electron transfer from the biphenyl (B) to the DCA forms a DCA^.cndot.-, which is observed at its characteristic absorption maximum (λobs =705 nm), within ca. 20 ns of the laser pulse. Rapid secondary electron transfer occurs from X-Y to B^.cndot.+ to generate X-Y^.cndot.+, which fragments to give X^.cndot.. A growth in absorption is then observed at 705 nm with a time constant of ca. 1 microsecond, due to reduction of a second DCA by the X^.cndot.. The absorption signal with the microsecond growth time is equal to the size of the absorption signal formed within 20 ns.
If the oxidation potential of X^.cndot. is not sufficiently negative to reduce DCA, an estimate of its oxidation potential was obtained by using other cyanoanthracenes as acceptors. […]

[2] = oxidation potential E1 by cyclic voltammetry; type: physicochemical; details: Table A; 80%/20% acetonitrile/water, 0.1M lithium perchlorate, 25° C.
Experimental: Oxidation potentials are well known and can be found, for example, in "Encyclopedia of Electrochemistry of the Elements", Organic Section, Volumes XI-XV, A. Bard and H. Lund (Editors) Marcel Dekker Inc., NY. (1984). E1 can be measured by the technique of cyclic voltammetry. In this technique, the electron donating compound is dissolved in a solution of 80%/20% by volume acetonitrile to water containing 0.1M lithium perchlorate. Oxygen is removed from the solution by passing nitrogen gas through the solution for 10 minutes prior to measurement. A glassy carbon disk is used for the working electrode, a platinum wire is used for the counter electrode, and a saturated calomel electrode (SCE) is used for the reference electrode. Measurement is conducted at 25° C. using a potential sweep rate of 0.1 V/sec. The oxidation potential vs. SCE is taken as the peak potential of the cyclic voltammetric wave.

[3] = fragmentation rate constant kfr by laser flash photolysis; type: physicochemical; details: Table B; CH3CN/H2O (4:1)
Text: The kinetics of the bond cleavage or fragmentation reaction can be measured by conventional laser flash photolysis. […] The specific experimental apparatus we used to measure fragmentation rate constants and radical oxidation potentials is described in detail below.
(b) Fragmentation Rate Constant Determination
These absorptions were used to determine the kinetics of the fragmentation reactions of the radical cations of the X-Y. Excitation of 9,10-dicyanoanthracene (DCA) in the presence of biphenyl and the X-Y donor, as described above, results in the formation of the DCA^.cndot.- and the X-Y^.cndot.+. By using a concentration of X-Y of ca. 10^-2 M, the X-Y^.cndot.+ can be formed within ca. 20 ns of the laser pulse. […] The monitoring wavelengths used were somewhat different for the different donors, but were mostly around 470-530 nm. […] Alternatively, when the decay rate of the X-Y^.cndot.+ was less than 10^6 s^-1, the solutions were purged with oxygen.
The experiments measuring the fragmentation rate constants were performed in acetonitrile with the addition of 20% water, so that all of the salts could be easily solubilized. Most experiments were performed at room temperature. […] When this happened, the fragmentation rate constants were measured as a function of temperature, and the rate constant at room temperature determined by extrapolation.

[4] = Example 7: photographic speed and fog with/without HB3, 365 nm exposure, emulsion T-2; details: emulsions containing red or blue sensitizing dye and electron donor
Experimental: (§1) For photographic evaluation, each of the coating strips was exposed for 0.1 sec to a 365 nm emission line of a Hg lamp filtered through a Kodak Wratten filter number 18A and a step wedge ranging in density from 0 to 4 density units in 0.2 density steps. The exposed film strips were developed for 6 min in Kodak Rapid X-ray Developer (KRX). S365, relative sensitivity at 365 nm, was evaluated at a density of 0.2 units above fog.
An AgBrI tabular silver halide emulsion (Emulsion T-2) was prepared containing 4.05% total I distributed such that the central portion of the emulsion grains contained 1.5% I and the perimeter area contained substantially higher I, as described by Chang et. al., U.S. Pat. No. 5,314,793. […] This emulsion was precipitated using deionized gelatin. The emulsion was sulfur sensitized by adding 8.5×10^-6 mole 1,3-dicarboxymethyl-1,3-dimethyl-2-thiourea /mole Ag at 40° C.; the temperature was then raised to 60° C. at a rate of 5° C./3 min and the emulsions held for 20 min before cooling to 40° C. The chemically sensitized emulsion was then used to prepare coatings containing the fragmentable two-electron donor compounds. […] Where present, the blue sensitizing dye D-I or the red sensitizing dye D-II were added from methanol solution to the emulsion at 40° C. after the chemical sensitization and disulfocatechol addition. The fragmentable two-electron donor compounds were added to the emulsion at 40° C. and the coatings were prepared and tested as described in Example 1, except that the additional gelatin used to prepare the coatings described in Table III was deionized gelatin.
Where present the blue sensitizing dye D-I or the red sensitizing dye D-II were added from methanol solution to the emulsion at 40° C. after the chemical sensitization and disulfocatechol addition. The fragmentable two-electron donating compounds were then added to the emulsion and coatings prepared as described in Example 1, except that the additional gelatin used to prepare the coatings described in Table VII was deionized gelatin. The coatings were tested for their response to a 365 nm exposure as described in Example 1.

[5] = Example 9: photographic speed and fog, 365 nm exposure, red dyed emulsion T-2; details: for Fog / S365: dye II 0.86 x10^-3; for S365: undyed control=100, dyed control 62
Experimental: as §1
An AgBrI tabular silver halide emulsion (Emulsion T-2) was prepared containing 4.05% total I distributed such that the central portion of the emulsion grains contained 1.5% I and the perimeter area contained substantially higher I, as described by Chang et. al., U.S. Pat. No. 5,314,793. […] This emulsion was precipitated using deionized gelatin. The emulsion was sulfur sensitized by adding 8.5×10^-6 mole 1,3-dicarboxymethyl-1,3-dimethyl-2-thiourea /mole Ag at 40° C.; the temperature was then raised to 60° C. at a rate of 5° C./3 min and the emulsions held for 20 min before cooling to 40° C. The chemically sensitized emulsion was then used to prepare coatings containing the fragmentable two-electron donor compounds. All of the experimental coating variations in Table III contained the hydroxybenzene 2,4-disulfocatechol (HB3) at a concentration of 13 mmole/ mole Ag, added to the melt before the addition of any further addenda. Where present, the blue sensitizing dye D-I or the red sensitizing dye D-II were added from methanol solution to the emulsion at 40° C. after the chemical sensitization and disulfocatechol addition. The fragmentable two-electron donor compounds were added to the emulsion at 40° C. and the coatings were prepared and tested as described in Example 1, except that the additional gelatin used to prepare the coatings described in Table III was deionized gelatin.
The sulfur sensitized AgBrI tabular emulsion T-2 as described in Example 3 was used to prepare coatings of the fragmentable two-electron donors S-15, S-14, S-13, and S-11, as described in Table IX. All of the experimental coating variations in Table IX contained the hydroxybenzene, 2,4-disulfocatechcol (HB3) at a concentration of 13 mmole/mole Ag, added to the melt before any further addenda. Where present, the red sensitizing dye D-II was added from methanol solution to the emulsion at 40° C. after the chemical sensitization and disulfocatechol addition. The fragmentable two-electron donor compounds were then added to the emulsion and coatings prepared and tested as described in Example I, except that the additional gelatin used to prepare the coatings described in Table IX was deionized gelatin.

Compound | Oxidation Potentials of Radicals (X*), E2 [1] | Oxidation Potential of X--Y, E1 [2] [V vs SCE] | kfr, Rate Constants for Decarboxylation of Radical Cations [3] | further results
CC(C(=O)O)N1c2ccccc2Sc2ccccc21 (stereo not drawn) [Compound 57] | < -0.9 V | 0.49 | ca. 1 × 10^5 s^-1 | 
COc1ccc(N(CC(=O)O)C(C)C(=O)O)cc1 (stereo not drawn) [Compound 15] | < -0.9 V | 0.36 | 90000 s⁻¹ | 
O=S(=O)(O)c1cc(O)c(O)c(S(=O)(=O)O)c1 [HB3, 2,4-disulfocatechol, reference compound] |  |  |  | effect on fog [4]: the level of fog can be lowered
COc1ccc(N(CC(=O)O)CC(=O)O)cc1 [Compound 10] | < -0.9 V | 0.38 | 9300 s⁻¹ | 
CCCCN(c1ccc(OC)cc1)C(C)C(=O)O (stereo not drawn) [Compound 36] | < -0.9 V | 0.22 | 1.1e+06 s⁻¹ | 
Cc1ccc(N(CC(=O)O)C(C)C(=O)O)cc1 (stereo not drawn) [Compound 20] | < -0.9 V | 0.46 | 8.1e+06 s⁻¹ | 
O=C(O)CN(CC(=O)O)c1ccccc1 [Compound 13] | ~ -0.85 V | 0.54 | 1.7e+07 s⁻¹ | 
CC(C(=O)O)N(CC(=O)O)c1ccccc1 (stereo not drawn) [Compound 14] | < -0.9 V | 0.50 | > 2e+07 s⁻¹ | 
Cc1ccc(N(CC(=O)O)CC(=O)O)cc1 [Compound 11] | ~ -0.9 V | 0.46 | 1.6e+06 s⁻¹ | 
N-(4-Carboxyethylphenyl)-N-(2-thioethyl-ethyl)alanine sodium salt [Compound S-15] |  |  |  | Fog ([5]; 0.007 x10^-3 mol/mol Ag): 0.13; S365 ([5]; 0.007 x10^-3 mol/mol Ag): 95; Fog ([5]; 0.022 x10^-3 mol/mol Ag): 0.23; S365 ([5]; 0.022 x10^-3 mol/mol Ag): 105; 365 nm sensitivity of dyed emulsion ([5]; dye D-II): restored to that of the undyed emulsion
Cn1cc(C(C)(C)C(=O)O)c2ccccc21 [Compound 44] | -0.81 V | 0.64 | 530000 s⁻¹ | 
